Literature values in US20110208118A1, “COMPOSITIONS AND MEANS FOR TREATING UTERINE LEIOMYOMATA, LEIOMYOMA, MYOMA, UTERINE FIBROIDS, ENDOMETRIOSIS, ADENOMYOSIS AND RELATED DISORDERS BY MIFEPRISTONE” (Bio-Pro Medical Ltd., priority 2007, published 2011).

Test system: uterine leiomyomata
[1] = oral mifepristone doses of 5 mg-50 mg

## CC#C[C@]1(O)CC[C@H]2[C@@H]3CCC4=CC(=O)CCC4=C3[C@@H](c3ccc(N(C)C)cc3)C[C@@]21C [mifepristone]
10 mg and 20 mg mifepristone daily for 12 weeks, women with large leiomyomata (Yang et al.)
  Reduction in volume of leiomyomata, 10 mg vs 20 mg groups: equivalent in the two groups
5, 25, and 50 mg of mifepristone daily for 12 weeks (Murphy et al.)
  regression in the size of uterine leiomyomata: clinically significant regression
[1]
  uterine and uterine fibroids size: reduction in uterine and uterine fibroids size
  uterine fibroids symptoms: improvement in uterine fibroids symptoms
